Assay results published in patent US20080293679A1, “Use of carotenoids and/or carotenoid derivatives/analogs for reduction/inhibition of certain negative effects of COX inhibitors” (priority 2005, published 2008).
Like-named read-outs stand apart in the source and are kept apart here.

Key:
[1] = F2-isoprostane formation from DAPC lipid vesicles by GC/NCI-MS; type: biochemical; conditions: 100 nM; vehicle 140±25 ng/100 μl; mean ± S.D.
Description: F2-Isoprostanes are derived principally from the formation of positioned peroxyl radical isomers of arachidonic acid, endocyclization to protaglandin G2-like structures, and reduction to PGF2-like compounds. Total levels of F2-isoprostanes, in DAPC lipid vesicles prepared in the presence of vehicle or drug, were measured by GC-MS with negative chemical ionization as described by Walter et al., 2000. Peroxidation of lipids occurred over time in the absence of any exogenous initiators at 37° C. F2-Isoprostane formation was also measured independently using mass spectroscopy in a blinded study at the Antioxidant Research Laboratory, Tufts University, Boston, Mass.

[2] = test system: human LDL; assay: Conjugated diene formation in isolated human LDL (CuSO4-induced oxidation); type: biochemical; conditions: 100 nM
Description: (§1) The effects of the compounds on lipid peroxidation were tested in isolated human LDL. Human venous blood was collected into vacutainer tubes containing K3EDTA after a 12-hour fast. Plasma was immediately separated by centrifugation at 3000 g for 25 minutes. LDL was obtained from plasma by ultracentrifugation using a procedure similar to that reported by Chung et al, 1986 using discontinuous KBr gradient. The purity of the freshly isolated LDL was assessed by SDS-PAGE using the procedure of Laemmli, 1970.
(§2) The extent of oxidation was measured for the LDL in the absence and presence of the drugs over a range of concentrations. Malondialdehyde (MDA), a product of lipid oxidation, was measured by the reaction of this aldehyde with thiobarbituric acid in an acid medium to form a stable chromogen, referred to as thiobarbituric-acid-reactive-substances (TBARS). Purified LDL (100 μg protein/ml) was incubated for 30 minutes with either vehicle or an NSAID at various concentrations followed by addition of 50 μM CuSO4 at 37° C. Conjugated diene formation was measured by continuously monitoring the change in absorbance at 234 nm on a Beckman DU 640 spectrophotometer, as described by Esterbauer et al., 1985. Stock solutions were tested for iron contamination, which can contribute independently to lipid peroxidation and assay artifacts.

[3] = Lipid peroxide (LOOH) formation in DAPC lipid vesicles with cholesterol (triiodide assay); type: biochemical; conditions: alone at 250 nM, 48 hour incubation at 37° C.
Description: The ability of astaxanthin to block the pro-oxidant effects of rofecoxib was tested in lipid vesicles reconstituted from DAPC (10 mg/ml) in physiologic buffer (0.5 mM HEPES, 154 mM NaCl, pH=7.32). The lipid vesicles also contained cholesterol at a level that reproduced physiologic conditions (0.2 cholesterol to phospholipid mole ratio). The drug effects were tested in the vesicles following addition of astaxanthin, rofecoxib or the combination of these two agents at an identical concentration (250 nM). To measure lipid peroxide (LOOH) formation, we used an assay that measures the conversion of I2 to I3^− (triiodide). This reaction takes place in the presence of LOOH in a manner that can be measured photometrically at 365 nm, El-Saadani, 1989. […] The lipid peroxidation reaction occurs gradually under normal atmospheric oxygen conditions in a shaking water bath (37° C.).

[4] = Oxygen Radical Absorption Capacity (ORAC) of human plasma; type: biochemical; conditions: 1.0 μM
Description: The comparative effect of COX-2 selective agents on the antioxidant capacity of human plasma was assessed using the Oxygen Radical Absorption Capacity (ORAC) assay. This assay was carried out according to the method of Huang et al., 2002 with fresh plasma using a microplate fluorescence reader in 96 well format with the excitation and emission filters set at 485 and 530 nm respectively.

[5] = test system: human LDL; assay: MDA formation (TBARS) in isolated human LDL; type: biochemical
Description: as §1, §2

[6] = type: physicochemical
Description: (§3) Determination of aqueous solubility/dispersibility. 30.13 mg of 3 was added to 1 mL of USP-purified water. The sample was rotated for 2 hours, then centrifuged for 5 minutes. After centrifuging, solid was visible in the bottom of the tube. A 125-μL aliquot of the solution was then diluted to 25 mL. The sample was analyzed by UV/Vis spectroscopy at 436 nm, and the absorbance was compared to a standard curve compiled from 4 standards of known concentration. The concentration of the original supernatant was calculated to be 2.85 mg/mL and the absorptivity was 36.94 AU*mL/cm*mg. Slight error may have been introduced by the small size of the original aliquot.
as §3, with “Next, 30.80” for “Determination of aqueous solubility/dispersibility. 30.13”, “9” for “3”, “411” for “436”, “The concentration of the original supernatant was calculated to be 2.85 mg/mL and the absorptivity was 36.94 AU*mL/cm*mg.” left out

[7] = test system: superoxide anion generation from phorbol-ester (PMA)-stimulated PMNs; assay: Direct superoxide anion scavenging by EPR spectroscopy (DEPMPO spin trap), isolated human neutrophil assay; type: cell-based
Description: Leukocyte Isolation and Preparation. Human polymorphonuclear leukocytes (PMNs) were isolated from freshly sampled venous blood of a single volunteer by Percoll density gradient centrifugation as described previously. Briefly, each 10 mL of whole blood was mixed with 0.8 mL of 0.1 M EDTA and 25 mL of saline. The diluted blood was then layered over 9 mL of Percoll at a specific density of 1.080 g/mL. After centrifugation at 400×g for 20 min at 20° C., the plasma, mononuclear cell, and Percoll layers were removed. Erythrocytes were subsequently lysed by addition of 18 mL of ice-cold water for 30 s, followed by 2 mL of 10×PIPES buffer (25 mM PIPES, 110 mM NaCl, and 5 mM KCl, titrated to pH 7.4 with NaOH). Cells were then pelleted at 4° C., the supernatant was decanted, and the procedure was repeated. After the second hypotonic cell lysis, cells were washed twice with PAG buffer [PIPES buffer containing 0.003% human serum albumin (HSA) and 0.1% glucose]. Afterward, PMNs were counted by light microscopy on a hemocytometer. The isolation yielded PMNs with a purity of >95%. The final pellet was then suspended in PAG-CM buffer (PAG buffer with 1 mM CaCl2 and 1 mM MgCl2).
EPR Measurements. All EPR measurements were performed using a Bruker ER 300 EPR spectrometer operating at X-band with a TM110 cavity as previously described. The microwave frequency was measured with a Model 575 microwave counter (EIP Microwave, Inc., San Jose, Calif.). To measure superoxide anion ? generation from phorbol-ester (PMA)-stimulated PMNs, EPR spin-trapping studies were performed using the spin trap DEPMPO (Oxis, Portland, Oreg.) at 10 mM. 1×10^6 PMNs were stimulated with PMA (1 ng/mL) and loaded into capillary tubes for EPR measurements. To determine the radical scavenging ability of 3 and 9 in aqueous and ethanolic formulations, PMNs were pre-incubated for 5 minutes with test compound, followed by PMA stimulation.
Instrument settings used in the spin-trapping experiments were as follows: modulation amplitude, 0.32 G; time constant, 0.16 s; scan time, 60 s; modulation frequency, 100 kHz; microwave power, 20 milliwatts; and microwave frequency, 9.76 GHz. The samples were placed in a quartz EPR flat cell, and spectra were recorded. The component signals in the spectra were identified and quantified as reported previously.

Compound | Levels of isoprostanes [1] [ng/100 μl] | decrease in lag time for human LDL conjugated diene formation [2] [%] | increase in lipid peroxide levels vs control [3] [%] | reduction of ORAC value ([4]; fresh human plasma) [%] | ORAC value (AUC) ([4]; vehicle 28.1±1.2) | effect on MDA levels (TBARS) in human LDL [5] | effect on MDA levels (TBARS) in human LDL ([5]; 50 nM, 10-fold lower than comparison drugs) | aqueous solubility/dispersibility [6] [µg/mL] | Mean (% inhibition) of superoxide anion signal ([7]; 40% EtOH, 0.1 mM, listed as disodium disuccinate derivative of natural source lutein, sodium salt) | Mean (% inhibition) of superoxide anion signal ([7]; 40% EtOH, 0.1 mM, sodium salt) [%] | Mean (% inhibition) of superoxide anion signal ([7]; Water, 0.1 mM) [%] | Mean (% inhibition) of superoxide anion signal ([7]; Water, 1.0 mM) [%] | Mean (% inhibition) of superoxide anion signal ([7]; Water, 3.0 mM) [%] | Mean (% inhibition) of superoxide anion signal ([7]; Water, 5.0 mM, listed as disodium disuccinate derivative of natural source lutein, sodium salt) [%] | Mean (% inhibition) of superoxide anion signal ([7]; Water, 5.0 mM, listed as disuccinate lutein sodium salt, sodium salt) [%] | Mean (% inhibition) of superoxide anion signal ([7]; Water, 5.0 mM, sodium salt) [%]
CS(=O)(=O)c1ccc(C2=C(c3ccccc3)C(=O)OC2)cc1 [rofecoxib] | 190±18 | 42.8±1.5 | 7.4 | 34 | 18.6±1.3 | marked increases | significant increase | – | – | – | – | – | – | – | – | –
β,ε-carotenyl 3,3′-disuccinate sodium salt [Lutein Disuccinate Sodium Salt] | – | – | – | – | – | – | – | 2850 | did not significantly increase scavenging | 5.0 | 0 | 13.0 | 61.7 | ~75 | 75 | 74.7
